Experimental data reported in patent publication US11046686B2, “Thiadiazole IRAK4 compounds” (Gilead Sciences, Inc., priority 2018, dated 2021).
Like-named read-outs stand apart in the source and are kept apart here.

Legend:
IRAK4 enzyme = IRAK4 enzyme (Homo sapiens (Human), UniProt Q9NWZ3); experiment: IRAK4 Biochemical Assay (TR-FRET, STK1 KinEASE)
How it was run: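 TR-FRET endpoint (KinEASE STK1): phosphopeptide detected with cryptate antibody and tracer after EDTA quench, ratio 665/615 nm, normalized to no-inhibitor wells as % inhibition. Reaction: 0.75 nM IRAK4, […] peptide, 500 μM ATP, pH 7.0 HEPES, 120 min room temperature, after 15 min compound preincubation with enzyme.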

TNFα = experiment: IRAK4 Monocyte TNFα Cell Based Assay; set-up: species or system human
How it was run: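 TNFα release quantified by HTRF (cryptate/XL665 antibody pair, overnight at RT) after 1 h compound pre-incubation (0.1% DMSO) and 4 h LPS challenge at 50 pg/ml, 37 °C, 5,000 monocytes per well. Signal ratio normalised between unstimulated (0%) and stimulated (100%) controls.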

[1] = compounds 1-32, read-out: IC50 HTRF
[2] = Homo sapiens, Monocyte, human monocytes, LPS stimulated, compounds 1-32, read-out: EC50 TNF
[3] = Homo sapiens, Monocyte, human monocytes, second part of Table 2, compounds 33-343, unit inferred, read-out: EC50 MONO TNF HTRF
[4] = second part of Table 2, compounds 33-343, unit inferred, read-out: IC50 IRAK4-HTBS
[5] = human monocytes, second part of Table 2, compounds 33-343, unit inferred, read-out: EC50 MONO TNF HTRF

Sequence of IRAK4 enzyme (Q9NWZ3 whole entry): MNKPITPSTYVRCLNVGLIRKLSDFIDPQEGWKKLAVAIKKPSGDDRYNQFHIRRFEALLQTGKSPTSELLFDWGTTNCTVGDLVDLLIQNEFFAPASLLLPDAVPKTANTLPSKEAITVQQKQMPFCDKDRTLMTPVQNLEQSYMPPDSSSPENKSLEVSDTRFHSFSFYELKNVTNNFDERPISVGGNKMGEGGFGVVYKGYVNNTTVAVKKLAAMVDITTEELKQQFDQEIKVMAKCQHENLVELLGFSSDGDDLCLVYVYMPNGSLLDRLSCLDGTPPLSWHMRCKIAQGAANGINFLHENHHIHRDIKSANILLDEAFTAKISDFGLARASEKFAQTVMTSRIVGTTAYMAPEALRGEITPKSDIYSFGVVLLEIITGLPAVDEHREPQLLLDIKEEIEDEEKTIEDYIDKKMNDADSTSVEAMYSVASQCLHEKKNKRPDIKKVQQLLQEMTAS

Row | SMILES | IC50 (IRAK4 enzyme) [nM] | EC50 (TNFα; [3]) [nM] | other results
1 | CC(C)Nc1cc(-c2ccc3cc(C#N)cnn23)ncc1-c1nnc(N2CCC3(CC2)COC3)s1 [Example 4, 7-(5-(5-(2-oxa-7-azaspiro[3.5]nonan-7-yl)-1,3,4-thiadiazol-2-yl)-4-(isopropylamino)pyridin-2-yl)pyrrolo[1,2-b]pyridazine-3-carbonitrile] | – | – | IC50 (IRAK4 enzyme; [1]): 1 nM; EC50 (TNFα; [2]): 23 nM
2 | CC(=O)N[C@@H]1[C@@H]2CC[C@H]1CN(c1nnc(-c3cnc(-c4ccc5cnc(N[C@@H]6CCCC[C@@H]6N)nn45)cc3N[C@H](C)C#N)s1)C2 [Example 61, N-((1R,5S,8S)-3-(5-(6-(2-(((1R,2S)-2-aminocyclohexyl)amino)pyrrolo[2,1-f][1,2,4]triazin-7-yl)-4-(((R)-1-cyanoethyl)amino)pyridin-3-yl)-1,3,4-thiadiazol-2-yl)-3-azabicyclo[3.2.1]octan-8-yl)acetamide] | 1.01 | 5.3 | –
3 | CC(C)Nc1cc(-c2ccc3cc(C#N)cnn23)ncc1-c1nnc(N2C3CCC2COC3)s1 [Compound 236, 7-(5-(5-(3-oxa-8-azabicyclo[3.2.1]octan-8-yl)-1,3,4-thiadiazol-2-yl)-4-(isopropylamino)pyridin-2-yl)pyrrolo[1,2-b]pyridazine-3-carbonitrile] | 0.83 | – | EC50 (TNFα; Homo sapiens, Monocyte, read-out: EC50 MONO TNF HTRF): 25.8 nM
4 | CC(=O)N[C@@H]1CCN(c2nnc(-c3cnc(-c4ccc5cc(C#N)cnn45)cc3NC3(C)COC3)s2)CC1(F)F (single isomer, unassigned; isomer 1) [147 Isomer 1] | – | – | IC50 (IRAK4 enzyme; [4]): 0.63 nM; EC50 (TNFα; [5]): 8.2 nM
5 | CC(C)Nc1cc(-c2ccc3cc(C#N)cnn23)ncc1-c1nnc([C@@H]2C[C@H]2C(C)(C)O)s1 (single isomer, unassigned; isomer 1) [132 Isomer 1] | – | – | IC50 (IRAK4 enzyme; [4]): 1.29 nM; EC50 (TNFα; [5]): 12.5 nM
6 | CC(C)Nc1cc(-c2ccc3cc(C#N)cnn23)ncc1-c1nnc(-c2ccc(N)cc2)s1 [Example 7, 7-(5-(5-(4-aminophenyl)-1,3,4-thiadiazol-2-yl)-4-(isopropylamino)pyridin-2-yl)pyrrolo[1,2-b]pyridazine-3-carbonitrile] | – | – | IC50 (IRAK4 enzyme; [1]): 9 nM; EC50 (TNFα; [2]): > 10000 nM
7 | CC(C)Nc1cc(-c2ccc3cc(C#N)cnn23)ncc1-c1nnc([C@H]2CC[C@H](NC(=O)C3(C)COC3)CC2)s1 [Example 314, N-((1r,4r)-4-(5-(6-(3-cyanopyrrolo[1,2-b]pyridazin-7-yl)-4-(isopropylamino)pyridin-3-yl)-1,3,4-thiadiazol-2-yl)cyclohexyl)-3-methyloxetane-3-carboxamide] | 0.55 | 10.1 | –
8 | CC(C)Nc1cc(-c2ccc3cc(C#N)cnn23)ncc1-c1nnc(C23CCC(O)(CC2)CC3)s1 [Example 89, 7-(5-(5-(4-hydroxybicyclo[2.2.2]octan-1-yl)-1,3,4-thiadiazol-2-yl)-4-(isopropylamino)pyridin-2-yl)pyrrolo[1,2-b]pyridazine-3-carbonitrile] | 1.01 | 11.3 | –
9 | CC(C)Nc1cc(-c2ccc3cc(C#N)cnn23)ncc1-c1nnc(N2CCN3CCOC[C@@H]3C2)s1 [Example 35, (S)-7-(5-(5-(hexahydropyrazino[2,1-c][1,4]oxazin-8(1H)-yl)-1,3,4-thiadiazol-2-yl)-4-(isopropylamino)pyridin-2-yl)pyrrolo[1,2-b]pyridazine-3-carbonitrile] | 0.87 | 78.2 | –
10 | CC(=O)N[C@@H]1CCCN(c2nnc(-c3cnc(-c4ccc5cc(C#N)cnn45)cc3NC(C)C)s2)C1 [Example 296, (R)-N-(1-(5-(6-(3-cyanopyrrolo[1,2-b]pyridazin-7-yl)-4-(isopropylamino)pyridin-3-yl)-1,3,4-thiadiazol-2-yl)piperidin-3-yl)acetamide] | 1.02 | 1000 | –
11 | CC(=O)N[C@H]1CC[C@H](c2nnc(-c3cnc(-c4ccc5cc(C#N)cnn45)cc3NC3COC3)s2)CC1 [Example 21, N-((1r,4r)-4-(5-(6-(3-cyanopyrrolo[1,2-b]pyridazin-7-yl)-4-(oxetan-3-ylamino)pyridin-3-yl)-1,3,4-thiadiazol-2-yl)cyclohexyl)acetamide] | – | – | IC50 (IRAK4 enzyme; [1]): < 1 nM; EC50 (TNFα; [2]): 10 nM
